Values of other authors, collected in patent US11168056B2, “Process for the manufacturing of (6aR,10aR)-7-propyl-6,6a,7,8,9,10,10a,11-octahydro-[1,3]dioxolo[4′,5′:5,6]benzo[1,2-G]quinoline and (4aR,10aR)-1-propyl-1,2,3,4,4a,5,10,10a-octahydro-benzo[G]quinoline-6,7-diol” (H. Lundbeck A/S, priority 2019, dated 2021).
Read-outs that look alike come from different tables or passages of the source. Blank lines part the entries; values can stand above or below the compound they belong to.

Columns and labels:
[1] = rats
[2] = test system: animal models relevant for Parkinson's Disease; conditions: various animal models
PD patients = conditions: intravenous (IV)
[3] = man, after oral dosing
[4] = rats; remark: listed apart in the source

SMILES: CCCN1CCC[C@@H]2CC3=C(CCCC3=O)C[C@H]21 [(Ia)]
conversion to the active compound (I) [1]: converted to the active compound (I)
efficacy in animal models relevant for Parkinson's Disease [2]: effective

SMILES: CCCN1CCC[C@@H]2Cc3c(ccc4c3OCO4)C[C@H]21 [compound (Ib), (6aR,10aR)-7-propyl-6,6a,7,8,9,10,10a,11-octahydro-[1,3]dioxolo[4′,5′:5,6]benzo[1,2-g]quinoline]
conversion of compound (Ib) to compound (I) (rat hepatocytes): demonstrated
conversion of compound (Ib) to compound (I) (human hepatocytes): demonstrated
efficacy in animal models relevant for Parkinson's Disease [2]: effective

hepatic first-pass metabolism [3]: extensive
oral bioavailability [3]: ~4%
SMILES: CCCc1cc2c(s1)CN[C@@H]1CCc3cc(OC(C)=O)c(OC(C)=O)cc3[C@@H]21 [Adrogolide]
antiparkinson efficacy (PD patients): comparable to that of L-DOPA

SMILES: CCCN1CCC[C@@H]2Cc3c(ccc(O)c3O)C[C@H]21 [compound (I), (4aR,10aR)-1-propyl-1,2,3,4,4a,5,10,10a-octahydro-benzo[g]quinoline-6,7-diol]
oral bioavailability [4]: low
efficacy in animal models relevant for Parkinson's Disease [2]: effective
